Laboratory results taken from patent US8802669B2, “Dihydropyrimidine compounds and preparation methods, pharmaceutical compositions and uses thereof” (Institute of Pharmacology and Toxicology Academy of …, priority 2009, dated 2014).

Tests used:
HBV DNA = test: Antiviral activity: inhibition of HBV DNA in supernatant of HepG2.2.15 cells (dot blot hybridization); assay type: cell-based, hepatitis B virus; settings: for IC50: Hepatitis B virus, HepG2.2.15 cells, 8 days (2 x 4 days) incubation, read-out: IC50 (Inhibitory effect on HBV DNA); for SI: selectivity index, TC50 against IC50, HepG2.2.15 cells
Experimental: The antiviral activity of the compounds according to the present invention was tested following the methods described by Sells et al. (M. A. Sells, M. L. Chen, g. Acs, Proc. Natl. Acad. Sci., 1987, 84, 1005-1009) and Korba et al., (B. E. Korba, J. L. Gerin, Antiviral Research, 1992, 19. 55-70).
(§1) The antiviral tests were carried out in 96-well microtitre plates. Only growth medium and HepG2.2.15 cells were added to the first vertical row of the plate, which row severed as a blank control.
(§2) Stock solutions of the test compounds (50 mM) were initially dissolved in DMSO, and further dilutions were prepared in the growth medium of HepG2.2.15. The compounds according to the present invention, usually in a test concentration of 100 μg/ml (1st test concentration), were in each case pipetted into the second vertical test row of the microtitre plate and subsequently diluted by a factor of 2 each time, up to 2^10-fold, using growth medium plus 2% of foetal calf serum (volume 25 μl).
(§3) 225 μl of a HepG2.2.15 cell suspension (5×10^4 cells/ml) in growth medium plus 2% foetal calf serum were then added to each well of the microtitre plate.
(§4) The test batch was incubated at 37° C., 5% CO2 for 4 days. The supernatant was subsequently siphoned off and discarded, and 225 μl of freshly prepared growth medium were added to the wells. Once more, the compounds according to the present invention were added, in a volume 25 μl. The batches were incubated fro another 4 days.
The supernatants were subsequently harvested and, by means of reduced pressure, siphoned onto 96-well dot blot chambers covered with a nylon membrane (in accordance with the specification provided by the manufacturer).
After transfer of the supernatants onto the nylon membrane of the blot apparatus (see above), the supernatants of the HepG2.2.15 cells were denatured (1.5 M NaCl/0.5 N NaOH), neutralized (3 M […]/0.5 M Tris HCl, pH 7.5) and washed (2×SSC). By incubation of the filters at 120° C. for 2-4 hours, the DNA was subsequently baked onto the membrane.
The viral DNA of the treated HEpG2.2.15 cells on the nylon filter membrane was usually detected using non-radioactive digoxygenin-labelled hepatitis B-specific DNA probes which were in each case in accordance with the specifications of the manufacturer labelled with digoxygenin, purified and used for hybridization.
Briefly speaking, the prehybridization and hybridization were carried out in 5×SSC, 1×blocking reagent, 0.1% N-lauroylsacosine, 0.02% SDS and 100 μg of DNA from herring sperm. The prehybridization was carried out at 60° C. for 30 minutes and the specific hybridization was carried out using 20 to 40 ng/ml of the digoxygenated denatured HBV-specific DNA (14 hours, 60° C.). The fillers were subsequently washed, and then determination of HBV DNA by digoxygenin antibodies was carried out.
The digoxygenin-labelled DNA was detected immunologically in accordance with the specifications of the manufacturer.
Briefly speaking, the fillers were washed and prehybridized in a blocking agent (in accordance with the specifications of the manufacturer). They were subsequently hybridized for 30 minutes using an anti-DIG antibody linked to alkaline phosphatase. After a washing step, the substrate of alkaline phosphatase, CSPD, was added, incubated with the filters for 5 minutes, subsequently wrapped in plastic film and incubated at 37° C. for a further 15 minutes. The chemiluminescene of the Hepatitis B-specific DNA signals was visualized by exposition of the filters on an X-ray film (incubation, depending on the signal strength: 10 minutes to 2 hours). The half-maximum inhibitory concentration (IC50) was determined.
The half-maximum inhibitory concentration (IC50) means the concentration at which the hepatitis B-specific band was reduced by 50% in comparison with an untreated sample by the compound according to the present invention.

[1] = Cytotoxicity in HepG2.2.15 cells (cell morphology, Reed & Muench); assay type: cell-based; settings: human, pathological changes observed by microscope after 8 days, read-out: TC50
Experimental: as §1, §2, §3, §4
Before the supernatants were harvested for determining the antiviral effect, the HePG2.2.15 cells were examined under the light microscope or by biochemical detection methods (for example Alamar Blue staining or Trypan Blue staining) for cytotoxic changes.
Substances-induced cytotoxic or cytostatic changes in the HepG2.2.15 cells were determined as changes in the cell morphology, for example under a light microscope. Such substance-induced changes of the HepG2.2.15 cells in comparison with untreated cells was apparent, for example, as cell lysis, vacuolization changed cell morphology. The pathological changes were observed by microscope after 8 days as index, a complete destroy being indicated as 4, 75% as 3, 50% as 2, 25% as 1, and no pathological change as 0. The average pathological change degree and inhibited percentages at various concentration were calculated, and a half-maximum toxic concentration (TC50) and a maximum non-toxic concentration […] were determined according to Reed & Muench methods.
TC50 means the concentration at which 50% of the cells have a morphology which is […] to the corresponding cell control by the compounds according to the present invention.

[2] = Solubility of the hydrochloride solid in solvents; assay type: physicochemical
Experimental: 0.18 g of the target compound obtained in Example 5 was dissolved in 2 ml of anhydrous ethanol, a solution of hydrogen chloride in ethyl-ether was added dropwise to precipitate a solid, and filtered to give 0.19 g of an off-white powdered solid.

| Structure (SMILES) | IC50 (HBV DNA) | SI (HBV DNA) | CC50 at 8 days [1] | solubility in dichloromethane, ethyl acetate, acetone, and the like ([2]; dichloromethane, ethyl acetate, acetone) | solubility in methanol and ethanol ([2]; methanol and ethanol) | solubility in water ([2]; water) |
| --- | --- | --- | --- | --- | --- | --- |
| CCOC(=O)C1=C(CN(CCO)CCO)NC(c2c(F)cc(F)cc2F)=NC1c1ccc(F)cc1Cl (stereo not drawn) [Example 15, ethyl 2-(2,4,6-trifluorophenyl)-4-(2-chloro-4-fluorophenyl)-6-diethanolaminomethyl-1,4-dihydropyrimidine-5-carboxylate] | 6.7 µM | 8.11 | 54 µM | – | – | – |
| CCOC(=O)C1=C(CN2CCN(CC)CC2)NC(c2c(F)cc(F)cc2F)=NC1c1ccc(F)cc1Cl (stereo not drawn) [Example 8, ethyl 2-(2,4,6-trifluorophenyl)-4-(2-chloro-4-fluorophenyl)-6-(4-ethylpiperazin-1-ylmethyl)-1,4-dihydropyrimidine-5-carboxylate] | 6.7 µM | 6.16 | 41 µM | – | – | – |
| CCOC(=O)C1=C(CN2CCOCC2)N=C(c2c(F)cc(F)cc2N2CCOCC2)NC1c1ccc(F)cc1Cl (stereo not drawn) [Example 13, ethyl 2-[2,4-difluoro-6-(morpholin-1-yl)phenyl]-4-(2-chlor-4-fluorophenyl)-6-(morpholine-1-ylmethyl)-1,4-dihydropyrimidine-5-carboxylate] | 4.4 µM | 12.72 | 55 µM | – | – | – |
| CCOC(=O)C1=C(CN2CCOCC2)NC(c2c(F)cc(F)cc2F)=NC1c1ccc(F)cc1Cl.Cl (stereo not drawn) [Example 18, ethyl 2-(2,4,6-trifluorophenyl)-4-(2-chloro-4-fluorophenyl)-6-(morpholin-1-ylmethyl)-1,4-dihydropyrimidine-5-carboxylate hydrochloride] | 2.4 µM | 13.37 | 31 µM | insoluble | soluble slightly | greatly soluble |
